Molecular target: T1, CFTR (Homo sapiens, UniProt P13569, DEL508-508)
T1 construct: Primary CF airway epithelial cells were obtained from the UNC Cystic Fibrosis Tissue Procurement and Cell Culture Core; host or cells: primary CF airway epithelial cells
Assay: Equivalent current assay in Primary CF airway epithelial cells (NAUC)
Assay type: cell-based
Conditions: 24 h, normalized to VX809 (3 μM) positive control; for Nauc @ 3 μM: 3 μM test compound; for Nauc @ 10 μM: 10 μM test compound
Procedure, shortened: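 NAUC is the area under the curve from forskolin (10 μM) plus VX770 (1 μM) addition to CFTR-172 (20 μM) block, after benzamil (5 μM). It is corrected for vehicle and scaled to 3 μM VX809 as 1.0 and DMSO as 0.0. Cells were exposed for 24 h to compounds with VX809; medians of ≥4 replicates were fitted sigmoidally.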

T1 sequence (P13569 with tags, fused parts or gaps DEL508-508): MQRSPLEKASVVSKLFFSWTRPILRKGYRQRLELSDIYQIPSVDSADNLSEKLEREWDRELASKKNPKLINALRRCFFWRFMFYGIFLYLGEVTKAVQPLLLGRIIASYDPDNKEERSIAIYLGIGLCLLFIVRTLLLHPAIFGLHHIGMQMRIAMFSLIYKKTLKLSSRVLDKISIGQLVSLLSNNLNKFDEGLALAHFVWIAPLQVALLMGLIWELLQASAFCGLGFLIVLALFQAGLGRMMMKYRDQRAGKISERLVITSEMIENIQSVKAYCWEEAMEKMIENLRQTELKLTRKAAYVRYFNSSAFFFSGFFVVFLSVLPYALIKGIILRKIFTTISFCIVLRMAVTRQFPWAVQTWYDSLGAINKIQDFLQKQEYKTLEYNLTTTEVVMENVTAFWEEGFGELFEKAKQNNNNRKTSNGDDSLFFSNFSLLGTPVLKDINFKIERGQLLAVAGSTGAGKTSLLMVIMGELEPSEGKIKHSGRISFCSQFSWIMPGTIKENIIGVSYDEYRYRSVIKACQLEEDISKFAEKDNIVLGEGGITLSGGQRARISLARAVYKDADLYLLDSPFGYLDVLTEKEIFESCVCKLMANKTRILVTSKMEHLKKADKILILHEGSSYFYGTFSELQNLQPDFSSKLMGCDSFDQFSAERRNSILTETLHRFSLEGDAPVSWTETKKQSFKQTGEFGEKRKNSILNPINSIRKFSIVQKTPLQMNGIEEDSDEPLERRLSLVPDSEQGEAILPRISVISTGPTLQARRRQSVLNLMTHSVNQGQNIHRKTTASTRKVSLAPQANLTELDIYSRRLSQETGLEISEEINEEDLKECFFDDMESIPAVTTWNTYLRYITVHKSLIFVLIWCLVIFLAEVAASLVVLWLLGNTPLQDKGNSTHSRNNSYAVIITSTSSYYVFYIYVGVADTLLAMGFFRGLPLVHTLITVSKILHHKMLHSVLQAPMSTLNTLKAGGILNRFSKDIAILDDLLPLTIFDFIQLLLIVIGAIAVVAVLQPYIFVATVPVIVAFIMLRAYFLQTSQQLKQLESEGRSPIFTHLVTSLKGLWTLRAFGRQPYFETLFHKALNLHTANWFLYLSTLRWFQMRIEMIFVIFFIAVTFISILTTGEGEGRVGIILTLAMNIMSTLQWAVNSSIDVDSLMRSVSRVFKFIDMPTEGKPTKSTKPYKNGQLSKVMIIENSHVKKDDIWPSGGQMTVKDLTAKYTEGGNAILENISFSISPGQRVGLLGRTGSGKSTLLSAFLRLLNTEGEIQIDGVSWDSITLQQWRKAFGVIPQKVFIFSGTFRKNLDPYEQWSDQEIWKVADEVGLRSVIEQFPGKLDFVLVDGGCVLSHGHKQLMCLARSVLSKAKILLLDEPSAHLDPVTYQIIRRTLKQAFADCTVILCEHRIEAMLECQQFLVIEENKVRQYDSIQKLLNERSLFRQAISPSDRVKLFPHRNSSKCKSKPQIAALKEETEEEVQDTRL

Compound	Nauc @ 3 μM	Nauc @ 10 μM
[2H]C12C(=O)N(c3cc(Cl)c(OC)c(Cl)c3)C(=O)C1([2H])C1(C(=O)Nc3c(Cl)cc(Cl)cc31)N1CC(C)(C)CC12 (stereo not shown) [Example 149]	+++ (NAUC “+++” refers to an observed NAUC >170% of positive control)	+++ (NAUC “+++” refers to an observed NAUC >170% of positive control)
O=C(O)c1cccc(C2C3C(=O)N(c4cc(Cl)cc(Cl)c4)C(=O)C3C3CCCN32)c1 (stereo not shown) [Example 150]	+ (NAUC “+” refers to an observed NAUC <140% of positive control)	++ (NAUC “++” refers to an observed NAUC 170-140% of positive control)
CC(C)(C)NC(=O)N[C@H]1CC2C3C(=O)N(c4cc(Cl)cc(Cl)c4)C(=O)C3C3(C(=O)Nc4c(Cl)cc(Cl)cc43)N2C1 (stereo partly shown) [Example 153]	+ (NAUC “+” refers to an observed NAUC <140% of positive control)	++ (NAUC “++” refers to an observed NAUC 170-140% of positive control)
O=C1C2C(Cc3ccccc3)NC3(C(=O)Nc4c(Cl)cc(Cl)cc43)C2C(=O)N1c1cc(Cl)cc(Cl)c1 (stereo not shown) [Example 154]	+++ (NAUC “+++” refers to an observed NAUC >170% of positive control)	+++ (NAUC “+++” refers to an observed NAUC >170% of positive control)
O=C1C2C(Cc3c[nH]c4ccccc34)NC3(C(=O)Nc4c(Cl)cc(Cl)cc43)C2C(=O)N1c1cc(Cl)cc(Cl)c1 (stereo not shown) [Example 155]	++ (NAUC “++” refers to an observed NAUC 170-140% of positive control)	+ (NAUC “+” refers to an observed NAUC <140% of positive control)
C[C@]1(O)CC2C3C(=O)N(c4cc(Cl)cc(Cl)c4)C(=O)C3C3(C(=O)Nc4c(Cl)cc(Cl)cc43)N2C1 (stereo partly shown) [Example 156]	++ (NAUC “++” refers to an observed NAUC 170-140% of positive control)	+++ (NAUC “+++” refers to an observed NAUC >170% of positive control)
O=C(O)CC1NC2(C(=O)Nc3c(Cl)cc(Cl)cc32)C2C(=O)N(c3cc(Cl)cc(Cl)c3)C(=O)C12 (stereo not shown) [Example 157]	+++ (NAUC “+++” refers to an observed NAUC >170% of positive control)	+ (NAUC “+” refers to an observed NAUC <140% of positive control)
COc1cc(Cl)cc(N2C(=O)C3C4C[C@](C)(O)CN4C4(C(=O)Nc5c(Cl)cc(Cl)cc54)C3C2=O)c1 (stereo partly shown) [Example 158]	++ (NAUC “++” refers to an observed NAUC 170-140% of positive control)	+++ (NAUC “+++” refers to an observed NAUC >170% of positive control)
COc1c(Cl)cc(N2C(=O)C3C4C[C@](C)(O)CN4C4(C(=O)Nc5c(Cl)cc(Cl)cc54)C3C2=O)cc1Cl (stereo partly shown) [Example 159]	+++ (NAUC “+++” refers to an observed NAUC >170% of positive control)	+++ (NAUC “+++” refers to an observed NAUC >170% of positive control)
COc1cc(Cl)cc(N2C(=O)C3C4C[C@](C)(F)CN4C4(C(=O)Nc5c(Cl)cc(Cl)cc54)C3C2=O)c1 (stereo partly shown) [Example 160]	+ (NAUC “+” refers to an observed NAUC <140% of positive control)	++ (NAUC “++” refers to an observed NAUC 170-140% of positive control)
N=C(N)NCCCC1NC2(C(=O)Nc3c(Cl)cc(Cl)cc32)C2C(=O)N(c3cc(Cl)cc(Cl)c3)C(=O)C12 (stereo not shown) [Example 163]	++ (NAUC “++” refers to an observed NAUC 170-140% of positive control)	+ (NAUC “+” refers to an observed NAUC <140% of positive control)

From US10072017B2, “Compounds and methods for the treatment of cystic fibrosis” (Flatley Discovery Lab, LLC, priority 2015, dated 2018)
